Data as given in patent US20220370463A1, “STABILIZED C-FMS INTRACELLULAR FRAGMENTS (FICD) PROMOTE OSTEOCLAST DIFFERENTIATION AND ARTHRITIC BONE EROSION” (New York Society for the Relief of the Ruptured and …, priority 2019, published 2022).

How the values were obtained:
[1] = test system: human CD14+ cells; experiment: Human osteoclastogenesis assay (TRAP-positive multinuclear cells); format: cell-based; settings: M-CSF, RANKL and MDL28170 for 4 days
Experimental: (§1) FIGS. 10A-10F show calpain regulates FICD generation. (A and B) Human CD14+ cells were cultured with M-CSF (20 ng/ml) for 8 hours to induce early signals and then (A) MDL 28170(0, 1, 2, 5 uM) or (B) PD150606 (0, 2, 5 uM) was added for 2 days. Immunoblot with anti c-FMS and α-tubulin antibodies in whole lysates(n=3). (C) Immunoblot of nuclear lysates with c-FMS and Lamin B1 antibodies. Cells were cultured with M-CSF for 12 hours, and then M-CSF was removed. Cells were subsequently treated with or without CaCl2 (10 mM) for an additional 24 hours. (D) Osteoclastogenesis assay. Human CD14+ cells were cultured with M-CSF, RANKL and MDL28170 for 4 days. […] Black scale bar is 100 μm. (E) A table showing the calpain cleavage site in c-FMS predicted by GPS-CCD program. First two calpain cleavage sites in cytoplasmic domains of c-FMS were used for FICD constructs. (F) A schematic diagram of a FICD construct. Representative results from at least three independent experiments.
For human osteoclastogenesis assays, cells were added to 96 well plates in triplicate at a seeding density of 5×10^4 cells per well. Osteoclast precursors were incubated with 20 ng/ml of M-CSF and 40 ng/ml of human soluble RANKL up to 5 days in α-MEM supplemented with 10% FBS and 1% L-glutamine. […] Multinucleated (greater than 3 nuclei), TRAP-positive osteoclasts were counted in triplicate wells. […]

[2] = test system: FICD (mem, H-FICD, L-FICD); experiment: FICD in membrane, cytoplasmic and nuclear fractions of human OCPs, immunoblot; format: cell-based
Experimental: (a) Human CD14+ cells were cultured with M-CSF (20 ng/ml) for 8 hours to induce early signals and then DAPT (10uM) was added for 2 days. Protein expression of c-FMS, Na+K+ pump, Lamin B1 and α-tubulin, as determined by immunoblot. ME; membrane extracts, CE; cytoplasmic extracts, and NE; nuclear extracts. (b) Immunohistochemistry of DAPI and c-FMS [middle]. […] Scale: 200×. (c) Cells were starved for three hours and then stimulated with M-CSF for the indicated times. (d and e) Cells were treated with Imatinib (0.3 μM, d) or c-FMS blocking antibody (5 μg) prior to the addition of M-CSF. Protein expression of FICD was measured by immunoblot. Lamin B1 and α-tubulin were used as controls for nuclear and cytoplasmic fractions, respectively. (f) Human CD14+ cells were cultured with M-CSF (20 ng/ml) for 8 hours to induce early signals and then MDL 28170(5 uM). Immunoblot with anti c-FMS and Lamin B1 antibodies. (g and h) Calpain 1, 5, and 6 were knocked down with siRNAs. Cells were cultured with M-CSF for 12 hours. (g) Efficiency of knockdown of Calpain 1, 5, and 6. (h) Immunoblot of c-FMS and Lamin B1. All data are shown as mean±SEM. *,p<0.05 by two-tailed, unpaired t-test (g). Representative results from at least three independent experiments.
as §1, with “(A” for “FIGS. 10A-10F show calpain regulates FICD generation. (A”, “(E) A table showing the calpain cleavage site in c-FMS predicted by GPS-CCD program.” left out
Whole cell extracts were prepared by lysis in buffer containing 1× Lamin sample buffer (Bio-rad) and 2-Mercaptoethanol (Sigma) or RIPA buffer (Sigma). The cell membrane-permeable protease inhibitor, Pefablock (1 mM), was added immediately prior to harvest cells. The membrane proteins were extracted with Mem-PER™ Plus Membrane Protein Extraction Kit (Thermorfisher scientific; 89842) according to manufacturer's instructions. To extracts of nucleus protein, cells were incubated in buffer A (10 mM Hepes, pH 7.9, 1.5 mM MgCl2, 10 mM KCl, 0.1 mM EDTA, 0.1 mM EGTA, proteinase inhibitor cocktail (Complete, Roche) and 1 mM DTT) for 15 min at 4° C. NP-40 was added to a final concentration of 0.5%. Nucleus was collected by centrifugation (5000 rpm, 5 min). The pellets were lysed by Bioruptor-ultrasonicator (UCD400, Diagenode) in buffer B (20 mM Hepes, pH 7.9, 0.4M NaCl, 10 mM KCl, 1 mM EDTA, 1 mM EGTA, 10% Glycerol, proteinase inhibitor cocktail and 1 mM DTT) and collected the supernatant by centrifugation (12,000 rpm, 10 min). The protein concentration of nuclear extracts was quantitated using the Bradford assay (Bio-Rad; 5000001). For immunoblot, proteins were separated on 7.5 or 10% SDS-PAGE gels, transferred to polyvinylidene difluoride membranes (PVDF, Millipore; ISEQ00010), and detected by antibodies as listed in the figure legends.

[3] = MDL 28170 5 uM after 8 hours M-CSF, nuclear extracts

MDL28170
osteoclast differentiation [1]: decreased
effect of calcium signaling on L-FICD processing ([2]; M-CSF removed, CaCl2 (10 mM) for 24 hours, nuclear lysates): reversed
enrichment of L-FICD versus H-FICD in the nucleus [2, 3]: shifted the enrichment of L-FICD to H-FICD in the nucleus
translocation of FICD into the nucleus [2, 3]: did not interfere
